In patent US5698578A, “Protein kinase C inhibitors” (Eli Lilly and Company, priority 1996, dated 1997) one finds IC50, PKC isozyme selectivity and ring closure, yield of all isomers data, which are given here for 4 molecules.

The target of data set [1] is Protein Tyrosine Kinase (src) (Homo sapiens, UniProt P12931). Nature of the data set: Protein Tyrosine Kinase Assay (src). The format is biochemical. The conditions noted are these: Table 1; Raytide substrate. The method, then:
Protein Tyrosine Kinase Assay (src)
The Assay components are the following:
4 μL DMSO or DMSO/inhibitor

For the next data set, the target named is PKC-α (Homo sapiens, UniProt P17252). Nature of the data set: PKC Enzyme Assay, alpha isozyme. The class given is biochemical. The conditions noted are these: Table 1, 30 μM ATP, 30° C., 10 minutes. The method, then: PKC enzymes=alpha, beta I, beta II, gamma, delta, epsilon, eta and zeta.
Assay components in a total volume of 250 μL are as follows:
For all the enzymes either histone type HL (Worthington) or myelin basic protein is used as substrate. The assay is started by addition of protein kinase C enzyme incubated at 30° C. for 10 minutes and stopped by adding 0.5 mL of cold trichloroacetic acid (Amresco) followed by 100 μL of 1 mg/mL bovine serum albumin (Sigma, St. Louis, Mo.). The precipitate is collected by vacuum filtration on glass fiber filters employing a TOMTEC™ filtration system and quantified by counting in a beta scintillation counter.

For data set [2], the system named is protein kinase C isozymes. The conditions noted are these: literature; cited from earlier work.
For data set [3] the following is noted: from CN1C(=O)C(c2c[nH]c3ccccc23)=C(c2cn(CCOC(CCI)CO[Si](c3ccccc3)(c3ccccc3)C(C)(C)C)c3ccccc23)C1=O; amine bond; Cs2CO3; DMF; 8.98 mM; 68.0 h.

“Also recorded” adds a separate entry of the source. Where only a bound is given, the exact number is not on record here.

Chain of Protein Tyrosine Kinase (src) (P12931 whole entry, species assumed): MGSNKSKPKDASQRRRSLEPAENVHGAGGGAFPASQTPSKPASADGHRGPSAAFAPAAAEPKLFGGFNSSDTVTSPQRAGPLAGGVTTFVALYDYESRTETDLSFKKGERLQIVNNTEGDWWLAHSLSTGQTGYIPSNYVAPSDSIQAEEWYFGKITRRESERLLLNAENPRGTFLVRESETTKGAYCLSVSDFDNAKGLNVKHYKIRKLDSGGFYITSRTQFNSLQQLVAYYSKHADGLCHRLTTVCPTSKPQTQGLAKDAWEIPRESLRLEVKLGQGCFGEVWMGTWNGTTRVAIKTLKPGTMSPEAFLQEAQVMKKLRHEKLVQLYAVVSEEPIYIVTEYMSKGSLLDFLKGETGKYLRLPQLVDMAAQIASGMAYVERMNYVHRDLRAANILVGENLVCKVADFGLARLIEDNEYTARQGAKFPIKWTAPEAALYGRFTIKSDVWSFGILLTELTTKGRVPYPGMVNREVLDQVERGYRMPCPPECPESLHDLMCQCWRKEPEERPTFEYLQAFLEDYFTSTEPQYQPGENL

In data set [1], `O=C1NC(=O)C2=C1c1cn(c3ccccc13)CCO[C@H](CNCc1ccccc1)CCn1cc2c2ccccc21` [Example 18s] returned an IC50 greater than 100 µM. `O=C1NC(=O)C2=C1c1cn(c3ccccc13)CCO[C@H](CNS(=O)(=O)c1ccccc1)CCn1cc2c2ccccc21` [Example 21s] had an IC50 at PKC-α greater than 5 µM. On to `CN(C)CCCn1cc(C2=C(c3c[nH]c4ccccc34)C(=O)NC2=O)c2ccccc21` [3-[1-(3-dimethylaminopropyl)-indol-3-yl]-4-(1H-indol-3-yl)-1H-pyrrole-2,5-dione], for which the PKC isozyme selectivity entry in data set [2] was “slight selectivity for the calcium dependent isozymes; also recorded: no difference, or possibly slight selectivity, for alpha over beta-1 and beta-2 isozymes”. As for `CN1C(=O)C2=C(C1=O)c1cn(c3ccccc13)CCC(CO[Si](c1ccccc1)(c1ccccc1)C(C)(C)C)OCCn1cc2c2ccccc21` (stereo not shown), the ring closure, yield of all isomers in data set [3] was 82%.

Usually IC50 stands for the concentration that gives 50% inhibition.
